According to patent publication US20240180877A1, “ANTI-ANXIETY COMPOSITION” (SUNTORY HOLDINGS LIMITED, priority 2021, published 2024):

Legend:
[1] = biological target: T1, Recombinant human α4/β2 nicotinic acetylcholine receptors (nAChR (α4β2)) (Homo sapiens, UniProt P17787+P43681); test: Inhibition of [3H]cytisine binding to nAChR (α4β2) cell membranes; conditions: FIG. 3; 100 μM or 1000 μM; 0.6 nM [3H]cytisine; SH-SY5Y cell membranes
T1 construct: host or cells: SH-SY5Y
Method: (§1) In order to evaluate molecular targets for reducing glutamate signaling by L-ergothioneine, nicotinic acetylcholine receptors associated with glutamate signaling were subjected to in vitro assay. The in vitro assay was commissioned to Eurofins Panlabs. The test was performed by the following method.
Recombinant human α4/β2 nicotinic acetylcholine receptors (nAChR (α4β2)) expressed in human neuroblastoma-derived SH-SY5Y cells were used. Cell membranes (30 μg) of the cells expressing nAChR (α4β2) were incubated in Tris-HCl buffer (pH 7.4) with 0.6 nM [3H]cytisine and L-ergothioneine (L-ergothioneine concentration: 100 μM or 1000 μM) at 4° C. for 120 minutes. Non-specific binding was estimated in the presence of 10 μM nicotine bitartrate. The cell membranes were filtered through a filter and washed, and the activity of L-ergothioneine to inhibit binding of substrates was evaluated using radioactivity of [3H]cytisine as an index.

[2] = biological target: Recombinant human α7 nicotinic acetylcholine receptors (nAChR (α7)) (Homo sapiens, UniProt P36544); assay type: binding; conditions: FIG. 3; 100 μM or 1000 μM; 0.4 nM [125I]-α-bungarotoxin; SH-SY5Y cell membranes
Recombinant human α7 nicotinic acetylcholine receptors (nAChR (α7)), sequence (P36544 23-502): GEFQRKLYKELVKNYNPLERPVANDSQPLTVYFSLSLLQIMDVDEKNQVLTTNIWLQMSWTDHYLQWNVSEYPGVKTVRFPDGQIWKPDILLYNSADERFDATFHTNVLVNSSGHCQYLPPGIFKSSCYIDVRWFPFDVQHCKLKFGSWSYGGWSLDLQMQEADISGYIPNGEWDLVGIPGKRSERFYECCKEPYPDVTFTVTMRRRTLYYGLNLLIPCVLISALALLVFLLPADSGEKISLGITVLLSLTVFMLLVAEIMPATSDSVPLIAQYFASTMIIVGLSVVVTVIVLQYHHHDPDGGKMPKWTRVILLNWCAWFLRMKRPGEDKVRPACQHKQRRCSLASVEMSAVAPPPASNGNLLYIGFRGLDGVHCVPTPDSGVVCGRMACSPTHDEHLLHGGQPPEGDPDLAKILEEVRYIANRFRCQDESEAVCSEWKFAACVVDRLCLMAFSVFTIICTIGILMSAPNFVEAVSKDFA

[3] = biological target: T2, Recombinant human α3/β4 nicotinic acetylcholine receptors (nAChR (α3β4)) (Homo sapiens, UniProt P30926+P32297); test: Inhibition of [125I]epibatidine binding to nAChR (α3β4) cell membranes
T2 construct: host or cells: CHO-K1
T2 sequence (P30926 22-498): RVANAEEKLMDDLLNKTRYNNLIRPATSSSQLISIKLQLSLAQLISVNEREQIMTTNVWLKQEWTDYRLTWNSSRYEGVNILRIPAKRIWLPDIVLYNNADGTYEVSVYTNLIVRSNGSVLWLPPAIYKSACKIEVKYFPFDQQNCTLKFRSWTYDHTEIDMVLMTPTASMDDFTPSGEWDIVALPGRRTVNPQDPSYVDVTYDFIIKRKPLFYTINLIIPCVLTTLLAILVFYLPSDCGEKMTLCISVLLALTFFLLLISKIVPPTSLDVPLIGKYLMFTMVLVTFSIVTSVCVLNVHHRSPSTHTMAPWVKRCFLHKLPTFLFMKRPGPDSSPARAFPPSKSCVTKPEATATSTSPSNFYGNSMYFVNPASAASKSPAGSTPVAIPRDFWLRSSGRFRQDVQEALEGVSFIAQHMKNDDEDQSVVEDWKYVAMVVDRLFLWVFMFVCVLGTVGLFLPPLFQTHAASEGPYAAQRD
T2 sequence (P32297 32-505): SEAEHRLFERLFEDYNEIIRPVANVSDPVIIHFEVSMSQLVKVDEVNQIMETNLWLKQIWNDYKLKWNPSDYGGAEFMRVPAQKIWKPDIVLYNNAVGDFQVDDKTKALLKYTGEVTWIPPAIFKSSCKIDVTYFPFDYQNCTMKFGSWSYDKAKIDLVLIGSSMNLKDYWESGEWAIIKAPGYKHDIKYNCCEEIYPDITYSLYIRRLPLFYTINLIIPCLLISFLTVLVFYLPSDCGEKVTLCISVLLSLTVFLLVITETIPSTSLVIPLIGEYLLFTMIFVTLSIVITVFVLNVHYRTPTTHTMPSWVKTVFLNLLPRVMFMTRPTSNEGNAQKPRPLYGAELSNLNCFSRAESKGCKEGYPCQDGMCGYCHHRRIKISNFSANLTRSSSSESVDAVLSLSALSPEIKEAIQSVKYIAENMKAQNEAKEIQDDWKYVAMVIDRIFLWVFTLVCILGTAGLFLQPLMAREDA
Method: as §1
Recombinant human α3/β4 nicotinic acetylcholine receptors (nAChR (α3β4)) expressed in Chinese hamster ovary-derived CHO-K1 cells were used. Cell membranes (0.6 μg) of the cells expressing nAChR (α3β4) were incubated in Tris-HCl buffer (pH 7.4) with 0.05 nM [125I]epibatidine and L-ergothioneine (L-ergothioneine concentration: 30 μM, 100 μM, 300 μM, 1000 μM, or 3000 μM) at 25° C. for 60 minutes. Non-specific binding was estimated in the presence of 10 μM epibatidine. The cell membranes were filtered through a filter and washed, and the activity of L-ergothioneine to inhibit binding of substrates was evaluated using radioactivity of [125I]epibatidine as an index.

T1 sequence (P43681 29-627 limits assumed): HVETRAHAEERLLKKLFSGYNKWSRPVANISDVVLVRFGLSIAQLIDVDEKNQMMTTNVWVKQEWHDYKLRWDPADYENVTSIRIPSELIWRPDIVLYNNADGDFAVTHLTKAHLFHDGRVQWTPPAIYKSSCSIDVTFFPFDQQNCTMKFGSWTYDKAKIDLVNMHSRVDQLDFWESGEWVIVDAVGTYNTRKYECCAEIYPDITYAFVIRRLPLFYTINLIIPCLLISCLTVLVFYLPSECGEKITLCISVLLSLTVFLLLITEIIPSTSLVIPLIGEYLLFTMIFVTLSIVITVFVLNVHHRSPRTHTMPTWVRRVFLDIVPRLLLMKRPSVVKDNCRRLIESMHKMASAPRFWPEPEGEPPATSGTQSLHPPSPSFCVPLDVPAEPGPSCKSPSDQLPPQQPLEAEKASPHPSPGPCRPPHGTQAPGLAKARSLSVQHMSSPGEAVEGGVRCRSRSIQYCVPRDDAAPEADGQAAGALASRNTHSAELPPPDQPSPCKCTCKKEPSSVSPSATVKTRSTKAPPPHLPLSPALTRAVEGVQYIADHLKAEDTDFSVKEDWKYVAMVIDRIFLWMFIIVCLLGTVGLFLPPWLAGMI
T1 sequence (P17787 26-502): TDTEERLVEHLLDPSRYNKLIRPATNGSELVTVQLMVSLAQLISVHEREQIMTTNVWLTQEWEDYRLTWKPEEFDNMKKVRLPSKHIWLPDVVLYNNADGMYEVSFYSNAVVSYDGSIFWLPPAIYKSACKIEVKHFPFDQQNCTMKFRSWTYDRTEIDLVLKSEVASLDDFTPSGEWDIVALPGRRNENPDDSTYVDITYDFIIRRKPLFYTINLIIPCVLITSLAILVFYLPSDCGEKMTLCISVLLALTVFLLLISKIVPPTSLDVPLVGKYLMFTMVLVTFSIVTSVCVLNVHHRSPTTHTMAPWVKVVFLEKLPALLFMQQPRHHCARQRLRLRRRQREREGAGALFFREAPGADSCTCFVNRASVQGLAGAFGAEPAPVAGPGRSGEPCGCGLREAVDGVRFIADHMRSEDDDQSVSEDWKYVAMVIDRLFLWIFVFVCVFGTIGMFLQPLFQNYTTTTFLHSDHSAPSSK

`C[N+](C)(C)[C@@H](Cc1c[nH]c(=S)[nH]1)C(=O)[O-]` [L-ergothioneine] was tested, and the “activity to inhibit binding of substrates to α4β2 receptors” value [1] was “showed the activity”, the “activity to inhibit binding of substrates to α7 receptors” value [2] was “showed the activity” and the “activity to inhibit binding of substrates to α3β4 receptors” value ([3]; FIG. 3, [125I]epibatidine) was “strong activity”. The IC50 ([3]; five concentrations 30-3000 μM, 0.05 nM [125I]epibatidine, CHO-K1 cell membranes, 25° C., 60 minutes, read-out: 50% inhibitory concentration) was 1110 µM.
